Among the data in patent US11208400B2, “Substituted 6-(1H-pyrazol-1-yl)pyrimidin-4-amine derivatives and uses thereof” (Bayer Aktiengesellschaft, priority 2016, dated 2021) are IC50 values, retold here.

Counter-ions that a name gives are not always drawn.

This assay deals with T1, human Npt2a (Homo sapiens, UniProt Q06495).
T1 construct: expressed in transfected cells
T1 sequence (Q06495 1-639): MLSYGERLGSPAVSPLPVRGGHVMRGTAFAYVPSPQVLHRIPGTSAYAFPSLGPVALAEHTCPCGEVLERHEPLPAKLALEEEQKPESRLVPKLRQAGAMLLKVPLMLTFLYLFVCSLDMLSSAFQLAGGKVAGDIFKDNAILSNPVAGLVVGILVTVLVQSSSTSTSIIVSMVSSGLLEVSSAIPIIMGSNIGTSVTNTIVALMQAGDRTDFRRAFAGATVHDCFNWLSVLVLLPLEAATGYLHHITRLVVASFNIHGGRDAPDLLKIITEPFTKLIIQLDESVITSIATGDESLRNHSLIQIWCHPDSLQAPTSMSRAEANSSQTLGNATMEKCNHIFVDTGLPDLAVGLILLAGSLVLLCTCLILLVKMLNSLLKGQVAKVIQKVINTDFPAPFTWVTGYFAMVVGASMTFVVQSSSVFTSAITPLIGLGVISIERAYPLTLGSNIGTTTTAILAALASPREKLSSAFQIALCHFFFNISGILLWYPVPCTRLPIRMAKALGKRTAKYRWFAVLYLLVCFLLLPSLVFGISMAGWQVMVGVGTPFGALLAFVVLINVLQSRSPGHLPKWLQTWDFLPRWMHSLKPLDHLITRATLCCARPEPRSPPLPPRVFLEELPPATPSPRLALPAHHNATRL
Kind of assay: Npt2a activity cell based assay, membrane potential dye, CHO T-REx hNpt2a cells. Particulars: doxycycline-induced, depolarization by sodium phosphate influx, average or median values if tested more than once. An outline of the steps: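 Doxycycline-induced (0.5 μg/mL, 24 h) CHO T-REx cells were loaded with membrane potential dye in sodium-free NHE buffer (pH 7.4) and exposed to compound (50 μM–1 nM, 5 min, room temperature).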
In turn, `CNc1ccc(-c2nn(CC3CC3)c(Nc3cc(-n4nc(C)cc4C(F)F)ncn3)c2C)cc1` [Example 487, N-{1-(cyclopropylmethyl)-4-methyl-3-[4-(methylamino)phenyl]-1H-pyrazol-5-yl}-6-[5-(difluoromethyl)-3-methyl-1H-pyrazol-1-yl]pyrimidin-4-amine] came in with an IC50 of 150 nM. In other words, the sub-micromolar range. The value for `CNc1ccc(-c2nn(CC3CC3)c(Nc3cc(-n4nc(C)c(C(F)(F)F)c4C)ncn3)c2C)cc1` [Example 488, N-{1-(cyclopropylmethyl)-4-methyl-3-[4-(methylamino)phenyl]-1H-pyrazol-5-yl}-6-[3,5-dimethyl-4-(trifluoromethyl)-1H-pyrazol-1-yl]pyrimidin-4-amine] was 65 nM. Under `COc1ccc(-c2nn(CC3CC3)c(Nc3cc(-n4nc(C)cc4C(F)F)ncn3)c2C)cc1` [Example 489, N-[1-(cyclopropylmethyl)-3-(4-methoxyphenyl)-4-methyl-1H-pyrazol-5-yl]-6-[5-(difluoromethyl)-3-methyl-1H-pyrazol-1-yl]pyrimidin-4-amine] stands 270 nM; under `CC(=O)Cc1c(C)nn(-c2cc(Nc3c(C)c(-c4ccc(F)cc4)nn3CC3CC3)ncn2)c1C` [Example 490, 1-[1-(6-{[1-(cyclopropylmethyl)-3-(4-fluorophenyl)-4-methyl-1H-pyrazol-5-yl]amino}pyrimidin-4-yl)-3,5-dimethyl-1H-pyrazol-4-yl]propan-2-one], 6 nM; under `COc1ccc(-c2nn(CC3CC3)c(Nc3cc(-n4nc(C)cc4C)ncn3)c2C)cc1` [Example 491, N-[1-(cyclopropylmethyl)-3-(4-methoxyphenyl)-4-methyl-1H-pyrazol-5-yl]-6-(3,5-dimethyl-1H-pyrazol-1-yl)pyrimidin-4-amine], 220 nM.

In turn, `CCOC(=O)Cc1c(C)nn(-c2cc(Nc3nn(C)c(-c4ccc(C#N)cc4)c3OC)ncn2)c1C` [Example 492, ethyl [1-(6-{[5-(4-cyanophenyl)-4-methoxy-1-methyl-1H-pyrazol-3-yl]amino}pyrimidin-4-yl)-3,5-dimethyl-1H-pyrazol-4-yl]acetate] showed an IC50 of 13 nM. Under `COc1c(Nc2cc(-n3nc(C)c(OC)c3C)ncn2)nn(C)c1-c1ccc(C#N)cc1` [Example 493, 4-(4-methoxy-3-{[6-(4-methoxy-3,5-dimethyl-1H-pyrazol-1-yl)pyrimidin-4-yl]amino}-1-methyl-1H-pyrazol-5-yl)benzonitrile] stands 625 nM; under `COc1ccc(-c2nn(C)c(Nc3cc(-n4nc(C)c(C(F)(F)F)c4C)ncn3)c2C)cn1` [Example 494, 6-[3,5-dimethyl-4-(trifluoromethyl)-1H-pyrazol-1-yl]-N-[3-(6-methoxypyridin-3-yl)-1,4-dimethyl-1H-pyrazol-5-yl]pyrimidin-4-amine], 190 nM; under `CC(=O)Oc1c(C)nn(-c2cc(Nc3c(C)c(-c4ccc(F)cc4)nn3CC3CC3)ncn2)c1C` [Example 497, 1-(6-{[1-(cyclopropylmethyl)-3-(4-fluorophenyl)-4-methyl-1H-pyrazol-5-yl]amino}pyrimidin-4-yl)-3,5-dimethyl-1H-pyrazol-4-yl acetate], 3 nM. With `COc1ccc(-c2nn(CC3CC3)c(Nc3cc(-n4nc(C)c(Cl)c4C)ncn3)c2C)cn1` [Example 498, 6-(4-chloro-3,5-dimethyl-1H-pyrazol-1-yl)-N-[1-(cyclopropylmethyl)-3-(6-methoxypyridin-3-yl)-4-methyl-1H-pyrazol-5-yl]pyrimidin-4-amine], the IC50 came to 1310 nM. The value for `COc1ccc(-c2nn(C)c(Nc3cc(-n4nc(C)cc4C(F)F)ncn3)c2C)cn1` [Example 499, 6-[5-(difluoromethyl)-3-methyl-1H-pyrazol-1-yl]-N-[3-(6-methoxypyridin-3-yl)-1,4-dimethyl-1H-pyrazol-5-yl]pyrimidin-4-amine] was 3150 nM; that for `Cc1nn(-c2cc(Nc3nn(C)c(-c4ccc(F)cc4)c3OC(F)F)ncn2)c(C)c1C(C)(C)O` [Example 500, 2-[1-(6-{[4-(difluoromethoxy)-5-(4-fluorophenyl)-1-methyl-1H-pyrazol-3-yl]amino}pyrimidin-4-yl)-3,5-dimethyl-1H-pyrazol-4-yl]propan-2-ol] was 52 nM.

In the case of `CCNc1c(C)nn(-c2cc(Nc3c(C)c(-c4ccc(F)cc4)nn3CC3CC3)ncn2)c1C` [Example 501, N-[1-(cyclopropylmethyl)-3-(4-fluorophenyl)-4-methyl-1H-pyrazol-5-yl]-6-[4-(ethylamino)-3,5-dimethyl-1H-pyrazol-1-yl]pyrimidin-4-amine trifluoroacetate], the IC50 was 5 nM. This IC50 is about 10-fold lower than that of the compound before. With `CC(=O)c1c(C)nn(-c2cc(Nc3c(C)c(-c4ccc(F)cc4)nn3CC3CC3)ncn2)c1C` [Example 502, 1-[1-(6-{[1-(cyclopropylmethyl)-3-(4-fluorophenyl)-4-methyl-1H-pyrazol-5-yl]amino}pyrimidin-4-yl)-3,5-dimethyl-1H-pyrazol-4-yl]ethanone], the IC50 was found to be 5 nM. That is a single-digit nanomolar value. `COCc1c(C)nn(-c2cc(Nc3c(C)c(-c4ccc(F)cc4)nn3CC3CC3)ncn2)c1C` [Example 503, N-[1-(cyclopropylmethyl)-3-(4-fluorophenyl)-4-methyl-1H-pyrazol-5-yl]-6-[4-(methoxymethyl)-3,5-dimethyl-1H-pyrazol-1-yl]pyrimidin-4-amine] came in with an IC50 of 4 nM. The value for `COc1ccc(-c2nn(C)c(Nc3cc(-n4nc(C)c(Cl)c4C)ncn3)c2C)cn1` [Example 505, 6-(4-chloro-3,5-dimethyl-1H-pyrazol-1-yl)-N-[3-(6-methoxypyridin-3-yl)-1,4-dimethyl-1H-pyrazol-5-yl]pyrimidin-4-amine] was 1200 nM. The value for `Cc1nn(-c2cc(Nc3c(C)c(-c4ccc(F)cc4)nn3CC3CC3)ncn2)c(C)c1OCC#N` [Example 506, {[1-(6-{[1-(cyclopropylmethyl)-3-(4-fluorophenyl)-4-methyl-1H-pyrazol-5-yl]amino}pyrimidin-4-yl)-3,5-dimethyl-1H-pyrazol-4-yl]oxy}acetonitrile] was 28 nM; that for `Cc1nn(-c2cc(Nc3c(C)c(-c4ccc(F)cc4)nn3CC3CC3)ncn2)c(C)c1OC(F)F` [Example 509, N-[1-(cyclopropylmethyl)-3-(4-fluorophenyl)-4-methyl-1H-pyrazol-5-yl]-6-[4-(difluoromethoxy)-3,5-dimethyl-1H-pyrazol-1-yl]pyrimidin-4-amine] was 10 nM; that for `COc1c(C)nn(-c2cc(Nc3c(C)c(-c4ccc(C(F)F)nc4)nn3CC3CC3)ncn2)c1C` [Example 510, N-{1-(cyclopropylmethyl)-3-[6-(difluoromethyl)pyridin-3-yl]-4-methyl-1H-pyrazol-5-yl}-6-(4-methoxy-3,5-dimethyl-1H-pyrazol-1-yl)pyrimidin-4-amine] was 190 nM. The value for `Cc1nn(-c2cc(Nc3c(C)c(-c4ccc(C(F)F)nc4)nn3CC3CC3)ncn2)c(C)c1Cl` [Example 511, 6-(4-chloro-3,5-dimethyl-1H-pyrazol-1-yl)-N-{1-(cyclopropylmethyl)-3-[6-(difluoromethyl)pyridin-3-yl]-4-methyl-1H-pyrazol-5-yl}pyrimidin-4-amine] was 120 nM. Compound `Cc1nn(-c2cc(Nc3c(C)c(-c4ccc(C(F)F)nc4)nn3CC3CC3)ncn2)c(C)c1C#N` [Example 512, 1-[6-({1-(cyclopropylmethyl)-3-[6-(difluoromethyl)pyridin-3-yl]-4-methyl-1H-pyrazol-5-yl}amino)pyrimidin-4-yl]-3,5-dimethyl-1H-pyrazole-4-carbonitrile] gave an IC50 of 1400 nM. In turn, `Cc1nn(-c2cc(Nc3c(C)c(C45C6C7C4C4C5C6C74C#N)nn3CC3CC3)ncn2)c(C)c1Cl` (stereo not shown) [Example 513, 4-[5-{[6-(4-chloro-3,5-dimethyl-1H-pyrazol-1-yl)pyrimidin-4-yl]amino}-1-(cyclopropylmethyl)-4-methyl-1H-pyrazol-3-yl]cubane-1-carbonitrile] yielded an IC50 of 7 nM. Under `COc1c(C)nn(-c2cc(Nc3c(C)c(C45C6C7C4C4C5C6C74C#N)nn3CC3CC3)ncn2)c1C` (stereo not shown) [Example 514, 4-[1-(cyclopropylmethyl)-5-{[6-(4-methoxy-3,5-dimethyl-1H-pyrazol-1-yl)pyrimidin-4-yl]amino}-4-methyl-1H-pyrazol-3-yl]cubane-1-carbonitrile] stands 9 nM; under `Cc1nn(-c2cc(Nc3c(C)c(-c4ccc(F)cc4)nn3CC3CC3)ncn2)c(C)c1C1(C(F)(F)F)OCCO1` [Example 517, N-[1-(cyclopropylmethyl)-3-(4-fluorophenyl)-4-methyl-1H-pyrazol-5-yl]-6-{3,5-dimethyl-4-[2-(trifluoromethyl)-1,3-dioxolan-2-yl]-1H-pyrazol-1-yl}pyrimidin-4-amine], 29 nM; under `COC(=O)Oc1c(C)nn(-c2cc(Nc3c(C)c(-c4ccc(F)cc4)nn3CC3CC3)ncn2)c1C` [Example 518, 1-(6-{[1-(cyclopropylmethyl)-3-(4-fluorophenyl)-4-methyl-1H-pyrazol-5-yl]amino}pyrimidin-4-yl)-3,5-dimethyl-1H-pyrazol-4-yl methyl carbonate], 14 nM.
